Activity calls are given as the source filed them. The calls are words filed in the database; no cut-off is given here.
Legend:
[1] = Inhibition of amyloid beta (1 to 40) aggregation after 30 mins by thioflavin T fluorescence assay
[2] = system: NSC; assay: Induction of NSC proliferation assessed as ATP level; format: functional, cell-based

SMILES	inhibition [1] [%]	Activity [2]
C[C@H]1COC2=C1C(=O)C(=O)c1c2ccc2c1CCCC2(C)C	43.7	–
COc1cc(OC)c2c(c1)O[C@H]1C[C@@H]2Oc2c(O)cccc21	19.8	inactive
O=C1CC(c2cccc(O)c2O)Oc2cc3c(c(O)c21)OCO3 (stereo not given)	61.7	Active

Reference: ChEMBL document CHEMBL1806482, “Flavans from Iris tenuifolia and their effects on β-amyloid aggregation and neural stem cells proliferation in vitro” (Bioorg Med Chem Lett, 2011)
